Results reported in PubChem BioAssay (NCI).
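Protocol summary: plate cells (96-well), add compound at 5 concentrations, incubate 48 h, interpolate endpoints linearly. TGI: total growth inhibition.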

Key:
Experiment in all cases: NCI tumour cell line growth inhibition, 48 h
786-0 renal = tested on: 786-0 renal
A498 renal = tested on: A498 renal
A549 NSCLC = tested on: A549 NSCLC
ACHN renal = tested on: ACHN renal
BT-549 breast = tested on: BT-549 breast
CAKI-1 renal = tested on: CAKI-1 renal
CCRF-CEM leukemia = tested on: CCRF-CEM leukemia
COLO 205 colon = tested on: COLO 205 colon
DU-145 prostate = tested on: DU-145 prostate
EKVX NSCLC = tested on: EKVX NSCLC
HCC-2998 colon = tested on: HCC-2998 colon
HCT-116 colon = tested on: HCT-116 colon
HCT-15 colon = tested on: HCT-15 colon
HL-60(TB) leukemia = tested on: HL-60(TB) leukemia
HOP-62 NSCLC = tested on: HOP-62 NSCLC
HOP-92 NSCLC = tested on: HOP-92 NSCLC
HS 578T breast = tested on: HS 578T breast
IGROV1 ovarian = tested on: IGROV1 ovarian
K-562 leukemia = tested on: K-562 leukemia
KM12 colon = tested on: KM12 colon
LOX IMVI melanoma = tested on: LOX IMVI melanoma
M14 melanoma = tested on: M14 melanoma
MALME-3M melanoma = tested on: MALME-3M melanoma
MDA-MB-231 breast = tested on: MDA-MB-231 breast
MDA-MB-435 = tested on: MDA-MB-435
MDA-N = tested on: MDA-N
MOLT-4 leukemia = tested on: MOLT-4 leukemia
NCI-H23 lung = tested on: NCI-H23 lung
NCI-H460 lung = tested on: NCI-H460 lung
NCI-H522 lung = tested on: NCI-H522 lung
NCI/ADR-RES ovarian = tested on: NCI/ADR-RES ovarian
OVCAR-3 ovarian = tested on: OVCAR-3 ovarian
OVCAR-4 ovarian = tested on: OVCAR-4 ovarian
OVCAR-5 ovarian = tested on: OVCAR-5 ovarian
OVCAR-8 ovarian = tested on: OVCAR-8 ovarian
PC-3 prostate = tested on: PC-3 prostate
RPMI-8226 leukemia = tested on: RPMI-8226 leukemia
RXF 393 renal = tested on: RXF 393 renal
SF-268 CNS = tested on: SF-268 CNS
SF-295 CNS = tested on: SF-295 CNS
SF-539 CNS = tested on: SF-539 CNS
SK-MEL-2 melanoma = tested on: SK-MEL-2 melanoma
SK-MEL-28 melanoma = tested on: SK-MEL-28 melanoma
SK-MEL-5 melanoma = tested on: SK-MEL-5 melanoma
SK-OV-3 ovarian = tested on: SK-OV-3 ovarian
SN12C renal = tested on: SN12C renal
SNB-19 CNS = tested on: SNB-19 CNS
SNB-75 CNS = tested on: SNB-75 CNS
SR leukemia = tested on: SR leukemia
SW-620 colon = tested on: SW-620 colon
T-47D breast = tested on: T-47D breast
U251 CNS = tested on: U251 CNS
UACC-257 melanoma = tested on: UACC-257 melanoma
UACC-62 melanoma = tested on: UACC-62 melanoma
UO-31 renal = tested on: UO-31 renal
HT29 colon = tested on: HT29 colon
NCI-H226 lung = tested on: NCI-H226 lung
TK-10 renal = tested on: TK-10 renal

Measured: TGI

CNC(=S)N/N=C(\C)c1cc(OC)ccc1O
> 100 µM: 786-0 renal | A498 renal | A549 NSCLC | ACHN renal | BT-549 breast | CAKI-1 renal | CCRF-CEM leukemia | COLO 205 colon | DU-145 prostate | EKVX NSCLC | HCC-2998 colon | HCT-116 colon | HCT-15 colon | HL-60(TB) leukemia | HOP-62 NSCLC | HOP-92 NSCLC | HS 578T breast | IGROV1 ovarian | K-562 leukemia | KM12 colon | LOX IMVI melanoma | M14 melanoma | MALME-3M melanoma | MDA-MB-231 breast | MDA-MB-435 | MDA-N | MOLT-4 leukemia | NCI-H23 lung | NCI-H460 lung | NCI-H522 lung | NCI/ADR-RES ovarian | OVCAR-3 ovarian | OVCAR-4 ovarian | OVCAR-5 ovarian | OVCAR-8 ovarian | PC-3 prostate | RPMI-8226 leukemia | RXF 393 renal | SF-268 CNS | SF-295 CNS | SF-539 CNS | SK-MEL-2 melanoma | SK-MEL-28 melanoma | SK-MEL-5 melanoma | SK-OV-3 ovarian | SN12C renal | SNB-19 CNS | SNB-75 CNS | SR leukemia | SW-620 colon | T-47D breast | U251 CNS | UACC-257 melanoma | UACC-62 melanoma | UO-31 renal

CCOC(=O)c1sc2nc(SC)nc(N3CCCCC3)c2c1N
> 100 µM: 786-0 renal | A498 renal | A549 NSCLC | ACHN renal | BT-549 breast | CAKI-1 renal | COLO 205 colon | DU-145 prostate | HCC-2998 colon | HCT-116 colon | HCT-15 colon | HOP-62 NSCLC | HOP-92 NSCLC | HS 578T breast | HT29 colon | IGROV1 ovarian | K-562 leukemia | KM12 colon | LOX IMVI melanoma | M14 melanoma | MALME-3M melanoma | MDA-MB-231 breast | MDA-MB-435 | MDA-N | MOLT-4 leukemia | NCI-H226 lung | NCI-H23 lung | NCI-H460 lung | NCI-H522 lung | NCI/ADR-RES ovarian | OVCAR-3 ovarian | OVCAR-4 ovarian | OVCAR-5 ovarian | OVCAR-8 ovarian | PC-3 prostate | RPMI-8226 leukemia | RXF 393 renal | SF-268 CNS | SF-295 CNS | SK-MEL-2 melanoma | SK-MEL-28 melanoma | SK-MEL-5 melanoma | SK-OV-3 ovarian | SN12C renal | SNB-19 CNS | SNB-75 CNS | SR leukemia | SW-620 colon | T-47D breast | TK-10 renal | U251 CNS | UACC-257 melanoma | UACC-62 melanoma | UO-31 renal
